Measurements from ChEMBL document CHEMBL5390294, “Pseudoceranoids A-J, Sesquiterpene-Based Meroterpenoids with Cytotoxicity from the Sponge Pseudoceratina purpurea” (J Nat Prod, 2023).

How the values were obtained:
[1] = system: K562; experiment: Cytotoxicity against human K562 cells assessed as inhibition of cell growth by MTT assay; type: functional, cell-based
[2] = system: H69AR; experiment: Cytotoxicity against human NCI-H69AR cells assessed as inhibition of cell growth by SRB assay; type: functional, cell-based
[3] = system: MDA-MB-231; experiment: Cytotoxicity against human MDA-MB-231 cells assessed as inhibition of cell growth by SRB assay; type: functional, cell-based
[4] = system: ASPC1; experiment: Cytotoxicity against human ASPC1 cells assessed as inhibition of cell growth by SRB assay; type: functional, cell-based
[5] = Cytotoxicity against human L02 cells assessed as inhibition of cell growth by SRB assay; type: toxicity, cell-based

Row | SMILES | IC50 [1] | IC50 [2] | IC50 [3] | IC50 [4] | IC50 [5]
1 | COC1=CC(=O)[C@H](C[C@@]2(C)CC[C@]3(C)C(C)=CCC[C@H]3[C@H]2C)[C@H]1O | > 30 µM | > 30 µM | > 30 µM | > 30 µM | > 30 µM
2 | COC1=CC(=O)C(O)=C(C[C@@]2(C)CC[C@]3(C)C(C=O)=CCC[C@H]3[C@H]2C)C1=O | > 30 µM | 2.85 µM | > 30 µM | > 30 µM | 12.1 µM
3 | COC1=CC(=O)C2=C(C[C@@H]3[C@@]4(C)CCCC(C)(C)[C@@H]4CC[C@@]23C)C1=O | > 30 µM | > 30 µM | > 30 µM | > 30 µM | > 30 µM
4 | COC1=CC(=O)C(O)=C(C[C@@]2(C)CC[C@]3(C)[C@@H](C)C(=O)CC[C@H]3[C@H]2C)C1=O | 16.1 µM | > 30 µM | > 30 µM | > 30 µM | 7.6 µM
5 | C=C1CCC[C@H]2[C@@H]1CC[C@@H](C)[C@@]2(C)CC1=CC(=O)C=C(OC)C1=O | > 30 µM | > 30 µM | > 30 µM | > 30 µM | > 30 µM
6 | COc1cc(O)cc2c1O[C@]1(C)CC[C@H]3C(C)(C)CCC[C@]3(C)[C@H]1C2 | 14 µM | > 30 µM | > 30 µM | > 30 µM | > 30 µM
7 | COC(=O)/C=C1/OC(=O)C(C[C@@]2(C)CC[C@]3(C)C(C)=CCC[C@H]3[C@H]2C)=C1O | > 30 µM | > 30 µM | > 30 µM | > 30 µM | > 30 µM
8 | COC1=CC(=O)[C@@H](C[C@@]2(C)CC[C@]3(C)C(C)=CCC[C@H]3[C@H]2C)[C@H]1O | > 30 µM | > 30 µM | > 30 µM | > 30 µM | > 30 µM
9 | CCCCOC1=CC(=O)C(O)=C(C[C@@]2(C)CC[C@]3(C)C(C)=CCC[C@H]3[C@H]2C)C1=O | 3.01 µM | 7.74 µM | 9.82 µM | > 30 µM | 20.3 µM
10 | COC1=CC(=O)C=C(C[C@]2(C)[C@H](C)CC[C@@H]3C(C)=CCC[C@@H]32)C1=O | > 30 µM | > 30 µM | > 30 µM | > 30 µM | > 30 µM
11 | COc1cccc2c1C(=O)c1c(O)c3c(c(O)c1C2=O)C[C@@](O)(C(=O)CO)C[C@@H]3O[C@H]1C[C@H](N)[C@H](O)[C@H](C)O1 [DOXORUBICIN] | < 1 µM | < 1 µM | < 1 µM | < 1 µM | –
